Data reported in patent US4952493A, “Peptide substrates for detecting virus-specified protease activity” (priority 1987, dated 1990).
Values joined by “and” are separate entries in the source; they are usually repeats but may differ in a detail not shown here. Equal entries are not always repeated. Numbered stars: 1 amine (or outer) side, 2 acyl side, 3 side chain; on linkers, the order of the positions; unused ones are H or OH. Peptide text beside a SMILES is read from it. * marks the point of attachment. AMC = Cc1cc(=O)oc2cc(N*)ccc12; Suc = O=C(CCC(=O)[*:2])[*:1]

Tested on: virus-specified protease activity in extracts of Poliovirus Type 2 infected HeLa-O cells
Type: biochemical
Conditions: pH 5

## Cc1cc(=O)oc2cc(NC(=O)[C@H](CCC(N)=O)NC(=O)[C@H](CC(C)C)NC(=O)CNC(=O)[C@H](Cc3ccccc3)NC(=O)CCC(=O)O)ccc12 [Suc-Phe-Gly-Leu-Gln-AMC] (Suc-FGLQ-{AMC})
  Protease Activity, AMC Substrate: 22.5 and 11.4
